For 22 compounds, Ki results are on record in patent US10633379B2, “Bromodomain inhibitors” (AbbVie Inc., priority 2016, dated 2020).

Assay [1] deals with BRD4 (BDII_E352-M457) (Homo sapiens (Human), UniProt O60885). The assay is described as follows: TR-FRET bromodomain binding assay, BRD4 BDII. Conditions: mean Ki, calculated from IC50, probe Kd and probe concentration. A digest of the protocol:
(§1)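 His-tagged BRD4 BDI (12 nM, with 100 nM Alexa647 BET-inhibitor probe) or BDII (4 nM, 30 nM probe), plus 1 nM Eu-anti-His antibody, in pH 6.0 phosphate buffer with 2% DMSO. Equilibrated 1 h at room temperature and read by TR-FRET. IC50 from a 4-parameter fit was converted to Ki using probe Kd and probe concentration.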

In assay [2] the target is BRD4 (BDI_K57-E168) (Homo sapiens (Human), UniProt O60885). The assay is described as follows: TR-FRET bromodomain binding assay, BRD4 BDI. To be noted: mean Ki, calculated from IC50, probe Kd and probe concentration. In a few lines: as §1

Take `CCNC(=O)c1cc2c(-c3cc(C(C)(O)CF)cnc3Oc3c(C)cc(Cl)cc3C)cn(C)c(=O)c2[nH]1` (centres unmarked) [Example 102, 4-[2-(4-chloro-2,6-dimethylphenoxy)-5-(1-fluoro-2-hydroxypropan-2-yl)pyridin-3-yl]-N-ethyl-6-methyl-7-oxo-6,7-dihydro-1H-pyrrolo[2,3-c]pyridine-2-carboxamide]: the inhibition constant Ki in assay [1] is 2.5 nM; in assay [2] it was 309 nM.
For the compound `CCNC(=O)c1cc2c(-c3cc(C(C)(C)O)cnc3Oc3c(C)ccc(Cl)c3C)cn(C)c(=O)c2[nH]1` [Example 109, 4-[2-(3-chloro-2,6-dimethylphenoxy)-5-(2-hydroxypropan-2-yl)pyridin-3-yl]-N-ethyl-6-methyl-7-oxo-6,7-dihydro-1H-pyrrolo[2,3-c]pyridine-2-carboxamide], the Ki in assay [1] is 1.1 nM; in assay [2], 169 nM.
The like results for `CCNC(=O)c1cc2c(-c3cc(C(C)(C)O)ccc3Oc3c(C)ccc(Cl)c3C)cn(C)c(=O)c2[nH]1` [Example 99, 4-[2-(3-chloro-2,6-dimethylphenoxy)-5-(2-hydroxypropan-2-yl)phenyl]-N-ethyl-6-methyl-7-oxo-6,7-dihydro-1H-pyrrolo[2,3-c]pyridine-2-carboxamide] were, in that order, 1.8 nM and 431 nM.
On the same counts, the results for `Cc1cc(F)cc(Cl)c1Oc1ncc(C(C)(C)O)cc1-c1cn(C)c(=O)c2[nH]c(C(=O)NC(C)(C)C(F)(F)F)cc12` [Example 58, 4-[2-(2-chloro-4-fluoro-6-methylphenoxy)-5-(2-hydroxypropan-2-yl)pyridin-3-yl]-6-methyl-7-oxo-N-(1,1,1-trifluoro-2-methylpropan-2-yl)-6,7-dihydro-1H-pyrrolo[2,3-c]pyridine-2-carboxamide] are 8.1 nM and 723 nM.
In the case of `CCNC(=O)c1cc2c(-c3cc(C(C)(C)O)ccc3Oc3c(C)cc(S(C)(=O)=O)cc3C)cn(C)c(=O)c2[nH]1` [Example 85, N-ethyl-4-{5-(2-hydroxypropan-2-yl)-2-[4-(methanesulfonyl)-2,6-dimethylphenoxy]phenyl}-6-methyl-7-oxo-6,7-dihydro-1H-pyrrolo[2,3-c]pyridine-2-carboxamide], the inhibitory constant (Ki) was 1.8 nM in assay [1] and 433 nM in assay [2].
Consider `Cc1cc(F)cc(C)c1Oc1ccc(C(C)(C)O)cc1-c1cn(C)c(=O)c2[nH]c(C(=O)NC3CC3)cc12` [Example 121, N-cyclopropyl-4-[2-(4-fluoro-2,6-dimethylphenoxy)-5-(2-hydroxypropan-2-yl)phenyl]-6-methyl-7-oxo-6,7-dihydro-1H-pyrrolo[2,3-c]pyridine-2-carboxamide], for which the values for the Ki in assay [1] and in assay [2] were 0.6 nM and 356 nM, respectively.
Consider `CCNC(=O)c1cc2c(-c3nc(C(C)(C)O)ccc3Oc3c(C)cccc3C)cn(C)c(=O)c2[nH]1` [Example 77, 4-[3-(2,6-dimethylphenoxy)-6-(2-hydroxypropan-2-yl)pyridin-2-yl]-N-ethyl-6-methyl-7-oxo-6,7-dihydro-1H-pyrrolo[2,3-c]pyridine-2-carboxamide], for which the figures for the inhibition constant (Ki) in assay [1] and in assay [2] were 2.2 nM and 606 nM, respectively.
For the compound `Cc1cc(Cl)cc(C)c1Oc1ncc(C(C)(C)O)cc1-c1cn(C)c(=O)c2[nH]c(C(=O)NC(C)(C)C)cc12` [Example 95, N-tert-butyl-4-[2-(4-chloro-2,6-dimethylphenoxy)-5-(2-hydroxypropan-2-yl)pyridin-3-yl]-6-methyl-7-oxo-6,7-dihydro-1H-pyrrolo[2,3-c]pyridine-2-carboxamide], the Ki in assay [1] was 4.8 nM; in assay [2], 333 nM.
For the compound “N-tert-butyl-4-[2-(2,6-dimethylphenoxy)-5-(2-hydroxypropan-2-yl)pyridin-3-yl]-6-methyl-7-oxo-6,7-dihydro-1H-pyrrolo[2,3-c]pyridine-2-carboxamide [Example 50]”, the inhibition constant Ki is 1.3 nM in assay [1] and 318 nM in assay [2].
On the same counts, the results for `Cc1cc(S(C)(=O)=O)cc(C)c1Oc1ncc(C(C)(C)O)cc1-c1cn(C)c(=O)c2[nH]c(C(=O)NC(C)(C)C)cc12` [Example 92, N-tert-butyl-4-{5-(2-hydroxypropan-2-yl)-2-[4-(methanesulfonyl)-2,6-dimethylphenoxy]pyridin-3-yl}-6-methyl-7-oxo-6,7-dihydro-1H-pyrrolo[2,3-c]pyridine-2-carboxamide] are 12.1 nM and 410 nM.
On the same counts, the results for `CCNC(=O)c1cc2c(-c3cc(C(C)(C)O)ccc3C3=CCC(F)(F)CC3)cn(C)c(=O)c2[nH]1` [Example 111, 4-[4′,4′-difluoro-4-(2-hydroxypropan-2-yl)[2′,3′,4′,5′-tetrahydro[1,1′-biphenyl]]-2-yl]-N-ethyl-6-methyl-7-oxo-6,7-dihydro-1H-pyrrolo[2,3-c]pyridine-2-carboxamide] are 1.4 nM and 150 nM.
On the same counts, the results for `Cc1cc(C(C)(C)O)cc(C)c1Oc1ccc(C(C)(C)O)cc1-c1cn(C)c(=O)c2[nH]c(C(=O)NC(C)(C)C)cc12` [Example 108, N-tert-butyl-4-{5-(2-hydroxypropan-2-yl)-2-[4-(2-hydroxypropan-2-yl)-2,6-dimethylphenoxy]phenyl}-6-methyl-7-oxo-6,7-dihydro-1H-pyrrolo[2,3-c]pyridine-2-carboxamide] are 1.6 nM and 175 nM.
On to `Cc1cccc(C(F)(F)F)c1Oc1ncc(C(C)(C)O)cc1-c1cn(C)c(=O)c2[nH]c(C(=O)NC(C)(C)C(F)(F)F)cc12` [Example 46, 4-{5-(2-hydroxypropan-2-yl)-2-[2-methyl-6-(trifluoromethyl)phenoxy]pyridin-3-yl}-6-methyl-7-oxo-N-(1,1,1-trifluoro-2-methylpropan-2-yl)-6,7-dihydro-1H-pyrrolo[2,3-c]pyridine-2-carboxamide], for which the Ki is 19.5 nM in assay [1] and 2520 nM in assay [2].
The like results for `CCNC(=O)c1cc2c(-c3cc(C(C)(C)O)ccc3Oc3c(C)cccc3C(F)F)cn(C)c(=O)c2[nH]1` [Example 70, 4-{2-[2-(difluoromethyl)-6-methylphenoxy]-5-(2-hydroxypropan-2-yl)phenyl}-N-ethyl-6-methyl-7-oxo-6,7-dihydro-1H-pyrrolo[2,3-c]pyridine-2-carboxamide] were, in that order, 3.7 nM and 1340 nM.
As to `CCNC(=O)c1cc2c(-c3cc(C(C)(C)O)ccc3Oc3c(C)cccc3Cl)cn(C)c(=O)c2[nH]1` [Example 30, 4-[2-(2-chloro-6-methylphenoxy)-5-(2-hydroxypropan-2-yl)phenyl]-N-ethyl-6-methyl-7-oxo-6,7-dihydro-1H-pyrrolo[2,3-c]pyridine-2-carboxamide], the inhibition constant Ki in assay [1] was 1.9 nM; in assay [2] it was 279 nM.
`CCNC(=O)c1cc2c(-c3cc(C(O)(c4ccc(F)cc4)C4CC4)cnc3Oc3c(C)cccc3C)cn(C)c(=O)c2[nH]1` (centres unmarked) [Example 23, 4-{5-[cyclopropyl (4-fluorophenyl)hydroxymethyl]-2-(2,6-dimethylphenoxy)pyridin-3-yl}-N-ethyl-6-methyl-7-oxo-6,7-dihydro-1H-pyrrolo[2,3-c]pyridine-2-carboxamide]: the inhibition constant (Ki) in assay [1] is 3.2 nM; in assay [2] it was 701 nM.
On the same counts, the results for `Cc1cc(F)cc(Cl)c1Oc1ccc(C(C)(C)O)cc1-c1cn(C)c(=O)c2[nH]c(C(=O)NC(C)(C)C)cc12` [Example 53, N-tert-butyl-4-[2-(2-chloro-4-fluoro-6-methylphenoxy)-5-(2-hydroxypropan-2-yl)phenyl]-6-methyl-7-oxo-6,7-dihydro-1H-pyrrolo[2,3-c]pyridine-2-carboxamide] are 4.6 nM and 432 nM.
On the same counts, the results for `Cc1cccc(Cl)c1Oc1ccc(C(C)(O)CO)cc1-c1cn(C)c(=O)c2[nH]c(C(=O)NC(C)(C)C)cc12` (centres unmarked) [Example 116, N-tert-butyl-4-[2-(2-chloro-6-methylphenoxy)-5-(1,2-dihydroxypropan-2-yl)phenyl]-6-methyl-7-oxo-6,7-dihydro-1H-pyrrolo[2,3-c]pyridine-2-carboxamide] are 2.9 nM and 756 nM.
`CCNC(=O)c1cc2c(-c3cc(C4(O)COC4)ccc3Oc3c(C)cc(F)cc3C)cn(C)c(=O)c2[nH]1` [Example 123, N-ethyl-4-[2-(4-fluoro-2,6-dimethylphenoxy)-5-(3-hydroxyoxetan-3-yl)phenyl]-6-methyl-7-oxo-6,7-dihydro-1H-pyrrolo[2,3-c]pyridine-2-carboxamide]: the figures for the Ki in assay [1] and in assay [2] were 1 nM and 168 nM, respectively.
The like results for `Cc1cccc(Cl)c1Oc1ccc(C(C)(C)O)cc1-c1cn(C)c(=O)c2[nH]c(C(=O)NC(C)(C)C)cc12` [Example 31, N-tert-butyl-4-[2-(2-chloro-6-methylphenoxy)-5-(2-hydroxypropan-2-yl)phenyl]-6-methyl-7-oxo-6,7-dihydro-1H-pyrrolo[2,3-c]pyridine-2-carboxamide] were, in that order, 3.3 nM and 260 nM.
The like results for `Cc1cc(F)cc(C)c1Oc1ccc(C(C)(C)O)cc1-c1cn(C)c(=O)c2[nH]c(C(=O)NC(C)(C)C)cc12` [Example 36, N-tert-butyl-4-[2-(4-fluoro-2,6-dimethylphenoxy)-5-(2-hydroxypropan-2-yl)phenyl]-6-methyl-7-oxo-6,7-dihydro-1H-pyrrolo[2,3-c]pyridine-2-carboxamide] were, in that order, 3.4 nM and 579 nM.
`Cc1cccc(C(F)F)c1Oc1ccc(C(C)(C)O)cc1-c1cn(C)c(=O)c2[nH]c(C(=O)NC(C)(C)C)cc12` [Example 71, N-tert-butyl-4-{2-[2-(difluoromethyl)-6-methylphenoxy]-5-(2-hydroxypropan-2-yl)phenyl}-6-methyl-7-oxo-6,7-dihydro-1H-pyrrolo[2,3-c]pyridine-2-carboxamide]: the inhibition constant (Ki) in assay [1] is 7.5 nM; in assay [2], 2310 nM.

A word on the Ki: it is a dissociation constant, usually derived from enzyme kinetics or from competition with a known ligand.
